Measurements taken from patent US20070224165A1, “Neuroprotective Effects of Gly-Pro-Glu Following Intravenous Infusion” (Neuren Pharmaceuticals Limited, priority 2003, published 2007).

Legend:
[1] = in vivo; conditions: rat, iv, 30 mg/kg
Description: Blood samples (≈220 ul) were collected into heparinized tubes containing 20 μl Sigma protease inhibitor cocktail for mammalian tissues diluted at a 1:9 ratio in 0.1 M PBS (pH=7). The samples were collected at 20, 10 and 0 min before and 1, 2, 4, 8, 16, 32 and 64 min after injection. […] The samples were centrifuged at 3000× g for 15 min at 4° C. and the plasma removed and stored at −80° C. until extraction and assay.

[2] = rat, in vivo, iv, 3 mg/kg
Description: (§1) The ED-50 was 195 pg/tube, and the limit of detection was 2 pg/ml. The intra-assay CV was <10% over the range 0.5 to 25 ng/ml. Any samples reading off the standard curve were further diluted before being re-assayed.

[3] = in vivo; conditions: rat, iv, 3 mg/kg
Description: as §1

- Pro-Glu in plasma by HPLC [1]: could not be identified
- level at 1 min [1]: 33000 ng/mL
- time for plasma GPE to decline back to baseline values [2]: ≤ 8 min
- level at 8 min [3]: 9.8 ± 1.33 ng/mL
Compound: NCC(=O)N1CCC[C@H]1C(=O)N[C@@H](CCC(=O)O)C(=O)O [GPE, glycine-proline-glutamate]
